The source made the active and inactive calls. The rule behind the calls is not given here.
Assays:
[1] = target: Neuronal acetylcholine receptor subunit alpha-7 (Rattus norvegicus) (UniProt Q05941); experiment: Agonist activity at rat alpha-7 nicotinic acetylcholine receptor expressed in Xenopus oocytes assessed as ratio of maximum response to compound to that induced by 1 mM acetylcholine at 1 mM treated for 3 to 4 secs followed by compound washout for 4 mins by two-electrode voltage-clamp electrophysiology assay; type: cell-based
[2] = target: T1, Neuronal acetylcholine receptor subunit alpha-7 (Rattus norvegicus, UniProt Q05941); experiment: (§1) Antagonist activity at rat alpha-7 nicotinic acetylcholine receptor expressed in Xenopus oocytes assessed as inhibition of acetylcholine-induced currents preincubated for 10 mins followed by nicotine induction by two-electrode voltage-clamp electrophysiology assay; type: cell-based
[3] = target: Neuronal acetylcholine receptor subunit alpha-7 (Rattus norvegicus) (UniProt Q05941); experiment: as §1, with “of nicotine-induced current amplitudes at IC50 for” for “of”, “assay relative to control” for “assay”; type: cell-based
[4] = target: T1, Neuronal acetylcholine receptor subunit alpha-7
[5] = target: Neuronal acetylcholine receptor subunit alpha-7 (Rattus norvegicus) (UniProt Q05941)

T1 sequence (Q05941 whole entry): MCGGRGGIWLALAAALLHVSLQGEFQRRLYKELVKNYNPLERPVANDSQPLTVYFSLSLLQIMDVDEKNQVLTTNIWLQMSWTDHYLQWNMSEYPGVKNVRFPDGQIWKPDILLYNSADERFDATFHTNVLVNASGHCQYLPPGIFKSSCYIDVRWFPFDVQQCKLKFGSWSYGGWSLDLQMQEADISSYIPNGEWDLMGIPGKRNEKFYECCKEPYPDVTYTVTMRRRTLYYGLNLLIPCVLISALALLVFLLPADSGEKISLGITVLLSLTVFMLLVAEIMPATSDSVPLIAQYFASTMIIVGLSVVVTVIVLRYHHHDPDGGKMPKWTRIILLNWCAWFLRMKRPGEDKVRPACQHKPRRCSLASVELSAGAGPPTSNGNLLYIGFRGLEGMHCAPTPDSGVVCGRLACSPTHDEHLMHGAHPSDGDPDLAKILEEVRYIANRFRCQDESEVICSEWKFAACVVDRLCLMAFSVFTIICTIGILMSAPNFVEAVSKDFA
Chain of Neuronal acetylcholine receptor subunit alpha-7 (Rattus norvegicus) (Q05941 whole entry): as above

O=C(NC1CN2CCC1CC2)c1ccccc1F (stereo not drawn) gave a Ratio [1] of 0.19, an IC50 [2] of 8.07 µM and an inhibition [3] of 26.5%. The EC50 [4] was 56.5 µM.

In the case of COc1cc(N)c(Cl)cc1C(=O)NC1CN2CCC1CC2 (stereo not drawn) [ZACOPRIDE], the Ratio [1] is reported as 0.038, the IC50 [2] is reported as 7.04 µM and the inhibition [3] is reported as 4.37%.

With O=C(N[C@H]1C[N+]2(CCl)CCC1CC2)c1ccccc1F the Ratio [1] was 0.021, the IC50 [2] was 28.4 µM and the inhibition [3] was 65.7%.

O=C(N[C@@H]1C[N+]2(CCl)CCC1CC2)c1ccccc1F was tested, and the IC50 [2] was 39.3 µM, the inhibition [3] was 33.2% and the pEC50 [5] was “inactive”.

Reference: ChEMBL document CHEMBL3600385 (Bioorg Med Chem Lett, 2015)
